Key:
[1] = test system: human ES cells; assay: Comparison of basic media for TH+ cell formation in human embryoid bodies; type: cell-based; settings: DMEM and 100 μM L-proline, absence of FGF2
Description: Embryoid bodies/neurospheres from human ES cells were grown without the use of MEDII conditioned media Media and supplements used were Hams DMEM/F12 (Gibco Cat # 11320-033), ITSS (Gibco Cat#17502-048) and N2 (Gibco Cat#41400-045).
The ability of basic media with supplements (DMEM+N2 or ITSS) to promote neural differentiation of hES cells was compared with medium that included F12: (DMEM:F12 (1:1)+N2 or ITSS).
Trypsinised Human ES cells were seeded at approximately 10 to 20 cells/μl of media into 10 ml of neurosphere media (DMEM:F12, 10 μg/ml heparin (SIGMA), 1/50 B27 (GIBCO), 1/100 pen/strep, 1/100 ITSS) in a T75 culture flask. 10 ng/ml FGF2 was optionally added but the culture medium was preferably mitogen-free (no FGF2). Cultures were maintained in the media for 9 days after which the embryoid bodies were optionally transferred to poly-L-ornithine/laminin plates and cultured in the same media for a further 6 days. The embryoid bodies so formed (EB^15), whether from adherent or suspension culture, were then triturated to near single cell form and used for either transplantation or for the formation of neurospheres/cell reaggregates.
Example 15 was repeated utilising human ES cells and a minimal media consisting of DMEM and 100 μM L-proline. The results were similar to those described in Example 5. […]

[2] = test system: SSEA4 selected HESCs; settings: 50 μM Proline, around 3 weeks suspension
Description: Essentially serum free embryoid bodies were generated from bulk passaged monolayer HESC colonies as described in Example 5, in the presence of the media set out below.

[3] = test system: sfEBM single cell suspension; assay: Clonal derivation of colonies from dispersed sfEBM in suspension; type: cell-based, human; settings: medium containing the factor alone
Description: sfEBMs were transferred to tissue culture dishes (4-well or 35 mm) and were rinsed with Ca^2+/Mg^2+ free PBS. After settling, the PBS was aspirated and 1 or 2 ml of 0.25% trypsin was added. sfEBMs were dispersed to a single cell suspension, with occasional doublets or triplets, by gentle trituration using a 1 ml pipette. The cell suspension was transferred to a 15 ml tube, diluted with 9 or 18 ml of medium and pelleted by centrifugation. The pellet was resuspended in DMEM/F12 supplemented with 1×N2 supplement, FGF-2 (4 ng/ml), 50% MEDII and added to agarose coated suspension dishes at low density (0.5-5 cells/μl). These cultures were not disturbed for 4-5 days, when small uniform colonies could be observed. Colonies could be harvested at approximately 10 days.
In an attempt to derive clones of essentially serum free embryoid bodies, trypsin was used to generate single cell suspensions from sfEBM cultures and low density cell suspensions, from 0-0.5-5 cells/μl, were incubated in suspension dishes. […] The synergistic activities of FGF2 and MEDII in the derivation of clonal sfEBMs was unexpected. […] The colonies produced were presumed to be clonal, and proliferated to as much as 0.2 mm in diameter within 10 days. The cloning efficiency was in the order of 4.5-6%.

Compound	TH+ cells in EB^17 bodies [1] [%]	appearance of sfEBPs with low cell death and distinct neural rosette structures [2]	generation of clonal colonies [3]
O=C(O)[C@@H]1CCCN1 [L-proline]	~50	noticeably enhanced	
FGF-2: fibroblast growth factor FGF-2			No clonal colonies

Source: patent US20060121607A1, “Compositions and methods for neural differentiation of embryonic stem cells” (priority 2002, published 2006)
